# Experimental data from US20230125667A1, “NOVEL TDZD ANALOGS AS AGENTS THAT DELAY, PREVENT, OR REVERSE AGE-ASSOCIATED DISEASES AND AS ANTI-CANCER AND ANTILEUKEMIC AGENTS” (United States Government as represented by the Department …, priority 2020, published 2023).
# Where two headings read alike, the source gives them in different places.
# Experiments:
# [1] = system: HT29; test: NCI-60 growth inhibition: HT29 (Colon Cancer); format: cell-based, human; details: Homo sapiens, HT-29
# [2] = system: OVCAR-3; test: NCI-60 growth inhibition: OVCAR-3 (Ovarian Cancer); format: cell-based, human; details: Homo sapiens
# [3] = system: UACC-257; test: NCI-60 growth inhibition: UACC-257 (Melanoma); format: cell-based, human; details: Homo sapiens
# [4] = system: DU-145; test: NCI-60 growth inhibition: DU-145 (Prostate Cancer); format: cell-based, human; details: Homo sapiens
# [5] = system: CCRF-CEM; test: NCI-60 growth inhibition: CCRF-CEM (Leukemia); format: cell-based, human; details: Homo sapiens
# [6] = system: NCI-H460; test: NCI-60 growth inhibition: NCI-H460 (Non-Small-Cell Lung Cancer); format: cell-based, human; details: Homo sapiens
# [7] = system: SK-MEL-28; test: NCI-60 growth inhibition: SK-MEL-28 (Melanoma); format: cell-based, human; details: Homo sapiens
# [8] = system: NCI-H23; test: NCI-60 growth inhibition: NCI-H23 (Non-Small-Cell Lung Cancer); format: cell-based, human; details: Homo sapiens
# [9] = system: COLO 205; test: NCI-60 growth inhibition: COLO 205 (Colon Cancer); format: cell-based, human; details: Homo sapiens
# [10] = system: SN12C; test: NCI-60 growth inhibition: SN12C (Renal Cancer); format: cell-based, human; details: Homo sapiens
# [11] = system: EKVX; test: NCI-60 growth inhibition: EKVX (Non-Small-Cell Lung Cancer); format: cell-based, human; details: Homo sapiens
# [12] = system: MALME-3M; test: NCI-60 growth inhibition: MALME-3M (Melanoma); format: cell-based, human; details: Homo sapiens
# [13] = system: UACC-62; test: NCI-60 growth inhibition: UACC-62 (Melanoma); format: cell-based, human; details: Homo sapiens
# [14] = system: MOLT-4; test: NCI-60 growth inhibition: MOLT-4 (Leukemia); format: cell-based, human; details: Homo sapiens
# [15] = system: SF-539; test: NCI-60 growth inhibition: SF-539 (CNS Cancer); format: cell-based, human; details: Homo sapiens
# [16] = system: MDA-MB-468; test: NCI-60 growth inhibition: MDA-MB-468 (Breast Cancer); format: cell-based, human; details: Homo sapiens
# [17] = system: M14; test: NCI-60 growth inhibition: M14 (Melanoma); format: cell-based, human; details: Homo sapiens
# [18] = system: HOP-92; test: NCI-60 growth inhibition: HOP-92 (Non-Small-Cell Lung Cancer); format: cell-based, human; details: Homo sapiens
# [19] = system: LOX IMVI; test: NCI-60 growth inhibition: LOX IMVI (Melanoma); format: cell-based, human; details: Homo sapiens
# [20] = system: SK-MEL-5; test: NCI-60 growth inhibition: SK-MEL-5 (Melanoma); format: cell-based, human; details: Homo sapiens
# [21] = system: A498; test: NCI-60 growth inhibition: A498 (Renal Cancer); format: cell-based, human; details: Homo sapiens
# [22] = system: SK-MEL-2; test: NCI-60 growth inhibition: SK-MEL-2 (Melanoma); format: cell-based, human; details: Homo sapiens
# [23] = system: ACHN; test: NCI-60 growth inhibition: ACHN (Renal Cancer); format: cell-based, human; details: Homo sapiens
# [24] = system: HS 578T; test: NCI-60 growth inhibition: HS 578T (Breast Cancer); format: cell-based, human; details: Homo sapiens
# [25] = system: RXF 393; test: NCI-60 growth inhibition: RXF 393 (Renal Cancer); format: cell-based, human; details: Homo sapiens
# [26] = system: MCF7; test: NCI-60 growth inhibition: MCF7 (Breast Cancer); format: cell-based, human; details: Homo sapiens
# [27] = system: PC-3; test: NCI-60 growth inhibition: PC-3 (Prostate Cancer); format: cell-based, human; details: Homo sapiens
# [28] = system: MV4-11 cell line (myelomonocytic leukemia); details: MV4-11 cells; for LD50, 7AAD (μM) 24 h / LD50, Alamar blue (μM) 24 h / LD50, YOPRO (μM) 24 h: MMB-TDZD analogs (Table 2); for LD50: values in text
# [29] = system: OVCAR-8; test: NCI-60 growth inhibition: OVCAR-8 (Ovarian Cancer); format: cell-based, human; details: Homo sapiens
# [30] = system: T-47D; test: NCI-60 growth inhibition: T-47D (Breast Cancer); format: cell-based, human; details: Homo sapiens, T47D
# [31] = system: SW-620; test: NCI-60 growth inhibition: SW-620 (Colon Cancer); format: cell-based, human; details: Homo sapiens
# [32] = system: NCI-H522; test: NCI-60 growth inhibition: NCI-H522 (Non-Small-Cell Lung Cancer); details: Homo sapiens, NCI-H522
# [33] = system: IGROV1; test: NCI-60 growth inhibition: IGROV1 (Ovarian Cancer); format: cell-based, human; details: Homo sapiens, IGROV-1
# [34] = system: MDA-MB-435; test: NCI-60 growth inhibition: MDA-MB-435 (Melanoma); format: cell-based, human; details: Homo sapiens
# [35] = system: 786-0; test: NCI-60 growth inhibition: 786-0 (Renal Cancer); format: cell-based, human; details: Homo sapiens
# [36] = system: OVCAR-4; test: NCI-60 growth inhibition: OVCAR-4 (Ovarian Cancer); format: cell-based, human; details: Homo sapiens
# [37] = system: SF-268; test: NCI-60 growth inhibition: SF-268 (CNS Cancer); format: cell-based, human; details: Homo sapiens
# [38] = system: MDA-MB-231/ATCC; test: NCI-60 growth inhibition: MDA-MB-231/ATCC (Breast Cancer); format: cell-based, human; details: Homo sapiens
# [39] = system: K-562; test: NCI-60 growth inhibition: K-562 (Leukemia); format: cell-based, human; details: Homo sapiens, K562
# [40] = system: OVCAR-5; test: NCI-60 growth inhibition: OVCAR-5 (Ovarian Cancer); format: cell-based, human; details: Homo sapiens
# [41] = system: TK-10; test: NCI-60 growth inhibition: TK-10 (Renal Cancer); format: cell-based, human; details: Homo sapiens
# [42] = system: HCT-15; test: NCI-60 growth inhibition: HCT-15 (Colon Cancer); format: cell-based, human; details: Homo sapiens
# [43] = system: HCT-116; test: NCI-60 growth inhibition: HCT-116 (Colon Cancer); details: Homo sapiens, HCT-116
# [44] = system: RPMI-8226; test: NCI-60 growth inhibition: RPMI-8226 (Leukemia); format: cell-based, human; details: Homo sapiens
# [45] = system: SNB-19; test: NCI-60 growth inhibition: SNB-19 (CNS Cancer); format: cell-based, human; details: Homo sapiens
# [46] = system: CAKI-1; test: NCI-60 growth inhibition: CAKI-1 (Renal Cancer); format: cell-based, human; details: Homo sapiens
# [47] = system: SNB-75; test: NCI-60 growth inhibition: SNB-75 (CNS Cancer); format: cell-based, human; details: Homo sapiens
# [48] = system: UO-31; test: NCI-60 growth inhibition: UO-31 (Renal Cancer); format: cell-based, human; details: Homo sapiens
# [49] = system: BT-549; test: NCI-60 growth inhibition: BT-549 (Breast Cancer); format: cell-based, human; details: Homo sapiens
# [50] = system: SR; test: NCI-60 growth inhibition: SR (Leukemia); format: cell-based, human; details: Homo sapiens
# [51] = system: U251; test: NCI-60 growth inhibition: U251 (CNS Cancer); format: cell-based, human; details: Homo sapiens, U-251
# [52] = system: human leukemia cell lines; test: NCI-60 growth inhibition, leukemia cell lines
# [53] = system: HL-60(TB); test: NCI-60 growth inhibition: HL-60(TB) (Leukemia); format: cell-based, human; details: Homo sapiens, HL-60
smiles,measurement,setting,value
C=C1C(=O)O[C@H]2[C@H]1CC/C(COC(=O)NCc1ccc(Cn3c(=O)sn(-c4ccccc4)c3=O)cc1)=C\CC[C@@]1(C)O[C@@H]21 [BSK-197],GI50,[1],2150 nM
same,GI50,[2],1680 nM
same,GI50,[3],1860 nM
same,GI50,[4],1710 nM
same,GI50,[5],830 nM
same,GI50,[6],3.67 µM
same,GI50,[7],1700 nM
same,GI50,[8],3550 nM
same,GI50,[9],1770 nM
same,GI50,[10],2130 nM
same,GI50,[11],1850 nM
same,GI50,[12],2090 nM
same,GI50,[13],2040 nM
same,GI50,[14],2200 nM
same,GI50,[15],1570 nM
same,GI50,[16]; MDA-MB-468,1170 nM
same,GI50,[17],1800 nM
same,GI50,[18],1820 nM
same,GI50,[19],1620 nM
same,GI50,[20],3240 nM
same,GI50,[21],3.91 µM
same,GI50,[22],2390 nM
same,GI50,[23],1640 nM
same,GI50,[24],4.14 µM
same,GI50,[25],1750 nM
same,GI50,[26],1590 nM
same,GI50,[27],2360 nM
same,"LD50, 7AAD (μM) 24 h",[28],1.26 µM
same,"LD50, Alamar blue (μM) 24 h",[28],2.02 µM
same,"LD50, YOPRO (μM) 24 h",[28],1.17 µM
same,LD50,[28],980 nM
same,GI50,[29],2830 nM
same,GI50,[30],1980 nM
same,GI50,[31],1910 nM
same,GI50,[32],1740 nM
same,GI50,[33],2090 nM
same,GI50,[34],2070 nM
same,GI50,[35],1810 nM
same,GI50,[36],2740 nM
same,GI50,[37],2210 nM
same,GI50,[38],1710 nM
same,GI50,[39],1800 nM
same,GI50,[40],2510 nM
same,GI50,[41],2210 nM
same,GI50,[42],1940 nM
same,GI50,[43],1520 nM
same,GI50,[44],2030 nM
same,GI50,[45],4.26 µM
same,GI50,[46],2490 nM
same,GI50,[47],2370 nM
same,GI50,[48],1680 nM
same,GI50,[49],2140 nM
C=C1C(=O)O[C@H]2[C@H]1CC/C(COC(=O)NCc1ccc(Cn3c(=O)sn(CCCI)c3=O)cc1)=C\CC[C@@]1(C)O[C@@H]21 [BSK-259],GI50,[1],1740 nM
same,GI50,[2],1190 nM
same,GI50,[3],1790 nM
same,GI50,[4],1730 nM
same,GI50,[5],310 nM
same,GI50,[6],3.2 µM
same,GI50,[7],1920 nM
same,GI50,[8],2110 nM
same,GI50,[9],1950 nM
same,GI50,[10],1570 nM
same,GI50,[11],2090 nM
same,GI50,[12],1390 nM
same,GI50,[13],1410 nM
same,GI50,[14],290 nM
same,GI50,[50],280 nM
same,GI50,[15],1710 nM
same,GI50,"[16]; MDA-MB-468 (Breast Cancer), read-out: GI50",1540 nM
same,GI50,[51],1750 nM
same,GI50,[17],1740 nM
same,GI50,[18],1220 nM
same,GI50,[19],1400 nM
same,GI50,[52]; Homo sapiens,280 to 900 nM
same,potency against leukemia cell lines (GI50 <1.0),[52]; NCI panel,high potency against all 6 leukemia cell lines
same,GI50,[20],1910 nM
same,GI50,[21],4.85 µM
same,GI50,[22],2420 nM
same,GI50,[23],1700 nM
same,GI50,[24],3.17 µM
same,GI50,[25],1520 nM
same,GI50,[26],1410 nM
same,GI50,[27],1940 nM
same,fold more cytotoxic than PTL,[28],273 fold
same,fold more cytotoxic than TDZD-8,[28],329 fold
same,"LD50, 7AAD (μM) 24 h",[28],0.01 µM
same,"LD50, Alamar blue (μM) 24 h",[28],0.30 µM
same,"LD50, YOPRO (μM) 24 h",[28],0.01 µM
same,LD50,[28],10 nM
same,GI50,[29],3040 nM
same,GI50,[30],1790 nM
same,GI50,[31],1400 nM
same,GI50,[32],1070 nM
same,GI50,[33],1750 nM
same,GI50,[34],1680 nM
same,GI50,[35],1680 nM
same,GI50,[36],1460 nM
same,GI50,[37],2540 nM
same,GI50,[38],1750 nM
same,GI50,[39],340 nM
same,GI50,[40],1850 nM
same,GI50,[41],1710 nM
same,GI50,[42],1890 nM
same,GI50,[43],1050 nM
same,GI50,[53],300 nM
same,GI50,[44],900 nM
same,GI50,[45],3.12 µM
same,GI50,[46],1700 nM
same,GI50,[48],1520 nM
same,GI50,[49],1380 nM
